According to ChEMBL document CHEMBL1201862, “PubChem BioAssay data set” (2004):
Calls of active or inactive are those of the source.

How the values were obtained:
[1] = cytotoxicity toward NIH3T3 fibroblasts, dose response, counter-screen, cell-based, ATP luminescence, mouse fibroblasts (AID 2010); format: functional;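 note: cells exposed to compound for about 90 hours before reading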
Escherichia coli [2] = assay: microbe, parasite or virus in culture
[3] = inhibitors of intracellular T. cruzi replication, confirmation, NIH3T3 host cells, beta-gal luminescence (AID 2044); format: functional, cell-based;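 note: intracellular parasites grown in NIH/3T3 mouse fibroblasts as host cells; luminescent beta-galactosidase reporter signal from transgenic T. cruzi replicating inside host cells; inhibitors lower the luminescence signal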
Escherichia coli [4] = assay: microbe, parasite or virus in culture; remark: listed apart in the source
Trypsin = Trypsin (Sus scrofa, UniProt P00761); assay: porcine trypsin inhibitors, dose response, selectivity assay for Rce1 protease inhibitor project, biochemical, quenched peptide fluorescence, cherry-pick (AID 488789)
Chain of Trypsin (P00761 whole entry): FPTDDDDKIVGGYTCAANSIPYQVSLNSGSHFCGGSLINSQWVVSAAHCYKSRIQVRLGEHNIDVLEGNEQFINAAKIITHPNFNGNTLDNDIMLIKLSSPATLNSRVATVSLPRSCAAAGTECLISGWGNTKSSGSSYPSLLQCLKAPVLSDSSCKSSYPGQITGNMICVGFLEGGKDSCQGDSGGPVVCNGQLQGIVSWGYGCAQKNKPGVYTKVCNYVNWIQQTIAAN

CAAX prenyl protease 2 = CAAX prenyl protease 2 (Homo sapiens, UniProt Q9Y256); assay: human Rce1 protease inhibitors, dose response, biochemical, yeast membranes, quenched-peptide fluorescence, cherry-pick (AID 588849)
Chain of CAAX prenyl protease 2 (Q9Y256 whole entry): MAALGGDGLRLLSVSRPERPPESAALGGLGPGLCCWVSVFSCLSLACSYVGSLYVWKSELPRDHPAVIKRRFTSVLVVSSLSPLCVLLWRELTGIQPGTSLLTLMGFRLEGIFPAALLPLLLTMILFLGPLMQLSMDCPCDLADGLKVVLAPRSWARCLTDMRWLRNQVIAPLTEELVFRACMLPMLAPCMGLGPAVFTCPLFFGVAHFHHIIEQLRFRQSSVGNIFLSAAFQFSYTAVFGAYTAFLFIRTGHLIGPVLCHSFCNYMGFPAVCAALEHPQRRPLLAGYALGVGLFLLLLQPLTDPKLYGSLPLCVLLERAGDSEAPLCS

Insulin-degrading enzyme [5] = molecular target: T1, Insulin-degrading enzyme (Homo sapiens, UniProt P14735); assay: activators of recombinant IDE enzyme, dose response, counter-screen for IDE activator project, biochemical, fluorescence polarization (AID 588681)
T1 sequence (P14735 whole entry): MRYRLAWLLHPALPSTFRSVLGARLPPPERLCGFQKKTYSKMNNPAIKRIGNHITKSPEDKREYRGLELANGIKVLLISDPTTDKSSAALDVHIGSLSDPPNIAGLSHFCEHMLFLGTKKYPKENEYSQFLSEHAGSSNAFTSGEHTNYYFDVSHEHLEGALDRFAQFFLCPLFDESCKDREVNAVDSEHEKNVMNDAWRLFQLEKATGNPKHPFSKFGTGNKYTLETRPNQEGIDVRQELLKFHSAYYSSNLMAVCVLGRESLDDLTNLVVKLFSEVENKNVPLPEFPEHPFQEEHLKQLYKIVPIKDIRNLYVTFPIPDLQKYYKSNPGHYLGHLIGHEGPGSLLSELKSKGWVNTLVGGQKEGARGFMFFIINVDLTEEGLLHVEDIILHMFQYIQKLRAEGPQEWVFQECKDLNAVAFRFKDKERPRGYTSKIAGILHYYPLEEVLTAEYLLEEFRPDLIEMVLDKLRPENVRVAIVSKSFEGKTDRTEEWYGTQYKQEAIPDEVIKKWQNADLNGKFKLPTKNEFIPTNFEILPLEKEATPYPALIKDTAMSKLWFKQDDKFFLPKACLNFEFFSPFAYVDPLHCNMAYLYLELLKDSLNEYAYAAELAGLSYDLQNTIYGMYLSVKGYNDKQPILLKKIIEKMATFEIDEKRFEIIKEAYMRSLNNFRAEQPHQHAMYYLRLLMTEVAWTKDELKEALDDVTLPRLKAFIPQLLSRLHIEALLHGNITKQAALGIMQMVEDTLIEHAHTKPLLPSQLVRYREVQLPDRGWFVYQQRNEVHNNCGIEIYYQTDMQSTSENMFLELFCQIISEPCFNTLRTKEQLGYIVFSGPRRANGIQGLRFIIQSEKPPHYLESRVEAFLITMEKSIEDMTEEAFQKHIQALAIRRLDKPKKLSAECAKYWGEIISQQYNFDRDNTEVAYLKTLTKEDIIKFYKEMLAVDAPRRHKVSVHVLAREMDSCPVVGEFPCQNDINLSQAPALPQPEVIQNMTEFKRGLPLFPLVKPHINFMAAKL

Insulin-degrading enzyme [6] = molecular target: T1, Insulin-degrading enzyme; assay: activators of endogenous IDE in HEK cells, dose response, cell-based, fluorescence polarization (AID 588439); format: functional
[7] = THP-1 cell cytotoxicity, dose response, cytotoxicity control for non-replicating M. tuberculosis project (AID 489025); format: functional
[8] = HEp-2 cell cytotoxicity, dose response, cytotoxicity control for RSV inhibitor project, HTS (AID 2410); format: functional; conditions: human respiratory syncytial virus
HEK293 [9] = assay: HEK cell cytotoxicity by LDH release, dose response, cytotoxicity control for IDE activator project, fluorescence, HEK cells (AID 588440); format: functional, cell-based; conditions: Homo sapiens;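 note: cytotoxicity by LDH release measuring loss of membrane integrity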
[10] = HepG2 cell cytotoxicity, dose response, cytotoxicity control for non-replicating M. tuberculosis project (AID 489018); format: functional; conditions: Mycobacterium tuberculosis
A-375 = assay: A375 melanoma cell viability reduction, dose response, counter-screen for MITF modulator project, cherry-pick samples, set 2 (AID 540335); format: functional, cell-based; conditions: Homo sapiens
HEK293 [11] = assay: optical interference in Abeta FP readout, dose response, artefact control for IDE activator project, biochemical, fluorescence polarization (AID 588442); format: functional, cell-based; conditions: Homo sapiens
[12] = Vero E6 cell cytotoxicity, dose response, cytotoxicity control for non-replicating M. tuberculosis project, secondary assay (AID 492998); format: functional, VeroE6; conditions: Vero C1008
cells = format: functional

With `O=[N+]([O-])c1ccc(-c2cc[nH]n2)o1` the EC50 [1] was > 60 µM (not active), the AC50 (Escherichia coli [2]) was 12.5 µM (active) and the EC50 [3] was 0.202 µM (active). For the same compound, the AC50 (Escherichia coli [4]) was 24 µM (active).
For `COc1cccc(Nc2nc(C)nc3c2oc2ccccc23)c1`, the AC50 (Trypsin) was 17 µM (active) and the AC50 (CAAX prenyl protease 2) was 6 µM (active).
In the case of `CN(C)CCCN(C(=O)CCc1ccccc1)c1nc2ccc(Br)cc2s1`, the EC50 (Insulin-degrading enzyme [5]) is reported as > 54.7 µM (inactive), the EC50 (Insulin-degrading enzyme [6]) is reported as 29.5 µM (inactive) and the CC50 [7] is reported as 17.6 µM (active). For the same compound, the CC50 [8] was 15.7 µM (active), the IC50 (HEK293 [9]) was 25.4 µM (inactive) and the CC50 [10] was 13.6 µM (active). The AC50 (A-375) was 18.6 µM (active), the EC50 (HEK293 [11]) was > 55.9 µM (inactive) and the CC50 [12] was 10.3 µM (active). The IC50 (cells) was 12.7 µM (active).
